Assay results taken from US9561228B2 (Celgene Avilomics Research, Inc., priority 2013, dated 2017).

Assays:
Type in all cases: cell-based
[1] = system: ERK1/2 phosphorylation of p90RSK in HT29 cells; assay: pRSK MSD Assay in HT29 cells; settings: Homo sapiens, HT-29, read-out: ERK1/ERK2 PRSK MSD HT29 EC50
Method in brief: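 Phospho-RSK level, read by electrochemiluminescence on RSK-antibody-coated MSD plates with a phospho-RSK/Sulfo-tag detection pair, reports cellular ERK1/2 activity. HT29 cells, kept overnight in 0.1% FBS medium, were exposed to compound for 120 min at 37° C before lysis.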

[2] = system: HT-29 cells (colorectal adenocarcinoma); assay: Inhibition of cancer cell proliferation, HT-29 (CellTiterGlo, 72 hours); settings: Homo sapiens
Method in brief: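 Proliferation over 72 h at 37° C was read by CellTiterGlo luminescence, translated to cell counts with a cell-density standard curve (390–50,000 cells). Compound added as 3-fold dilutions from a 5,000 nM two-fold stock to 3000 seeded HT-29 cells; GI50 from percent inhibition relative to untreated wells.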

[3] = system: ERK1/2 phosphorylation of p90RSK in A375 cells; assay: Detection of total and phosphor-RSK by MSD ELISA (A375); settings: Homo sapiens, A-375, read-out: ERK1/ERK2 PRSK A375 EC50
Method in brief: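 Electrochemiluminescent MSD ELISA: common RSK capture antibody, with pRSK Ser380 or total RSK detection antibodies plus SulfoTag secondaries. Samples were lysates of A375 cells exposed to compound for 2 h at 37° C after overnight culture in 0.1% FBS DMEM.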

| Structure (SMILES) | EC50 [1] [nM] | GI50 [2] [nM] | EC50 [3] [nM] |
| --- | --- | --- | --- |
| C=CC(=O)Nc1cc(C)ccc1Nc1nc(Nc2cc(NC3CC3)nc(OC)c2)ncc1C(F)(F)F [Compound I-337, N-(2-((2-((2-(cyclopropylamino)-6-methoxypyridin-4-yl)amino)-5-(trifluoromethyl)pyrimidin-4-yl)amino)-5-methylphenyl)acrylamide] | < 100 | < 100 | < 100 |
| C=CC(=O)Nc1ccccc1Nc1nc(Nc2cc(OC)cc(OC)c2)ncc1C(F)(F)F [Compound I-338, N-(2-((2-((3,5-dimethoxyphenyl)amino)-5-(trifluoromethyl)pyrimidin-4-yl)amino)phenyl)acrylamide] | < 100 | < 100 | < 100 |
| C=CC(=O)Nc1ccccc1Nc1nc(Nc2cc(OC)ccc2C)ncc1C(F)(F)F [Compound I-340, N-(2-((2-((5-methoxy-2-methylphenyl)amino)-5-(trifluoromethyl)pyrimidin-4-yl)amino)phenyl)acrylamide] | < 100 | 101 to 500 | < 100 |
| C=CC(=O)Nc1cc(C)ccc1Nc1nc(Nc2cc(OC)nc(N(C)C3CC3)c2)ncc1C(F)(F)F [Compound I-342, N-(2-((2-((2-(cyclopropyl(methyl)amino)-6-methoxypyridin-4-yl)amino)-5-(trifluoromethyl)pyrimidin-4-yl)amino)-5-methylphenyl)acrylamide] | 101 to 500 | < 100 | 101 to 500 |
